Data: ChEMBL document CHEMBL1127817, “Antitumor agents. 150. 2',3',4',5',5,6,7-substituted 2-phenyl-4-quinolones and related compounds: their synthesis, cytotoxicity, and inhibition of tubulin polymerization” (J Med Chem, 1994)

Key:
[1] = system: HCT-116; assay: In vitro inhibition of tumor cell growth of HCT116, colon cancer cell line; type: functional; details: Homo sapiens
[2] = system: OVCAR-3; assay: In vitro inhibition of tumor cell growth of OVCAR-3, ovarian cancer cell line; type: functional; details: Homo sapiens
[3] = system: RXF 393; assay: In vitro inhibition of tumor cell growth of RXF-393, renal cancer cell line; type: functional; details: Homo sapiens
[4] = system: SF-268; assay: In vitro inhibition of tumor cell growth of SF-268, CNS tumor cell line; type: functional; details: Homo sapiens
[5] = system: SK-MEL-5; assay: In vitro inhibition of tumor cell growth of SK-Mel-5, melanoma cell line; type: functional; details: Homo sapiens
[6] = system: SF-295; assay: In vitro inhibition of tumor cell growth of SF-295, CNS tumor cell line; type: functional; details: Homo sapiens
[7] = biological target: Tubulin beta chain (Bos taurus, UniProt Q6B856); assay: Inhibition of tubulin polymerization; type: functional
Chain of Tubulin beta chain (Q6B856 whole entry): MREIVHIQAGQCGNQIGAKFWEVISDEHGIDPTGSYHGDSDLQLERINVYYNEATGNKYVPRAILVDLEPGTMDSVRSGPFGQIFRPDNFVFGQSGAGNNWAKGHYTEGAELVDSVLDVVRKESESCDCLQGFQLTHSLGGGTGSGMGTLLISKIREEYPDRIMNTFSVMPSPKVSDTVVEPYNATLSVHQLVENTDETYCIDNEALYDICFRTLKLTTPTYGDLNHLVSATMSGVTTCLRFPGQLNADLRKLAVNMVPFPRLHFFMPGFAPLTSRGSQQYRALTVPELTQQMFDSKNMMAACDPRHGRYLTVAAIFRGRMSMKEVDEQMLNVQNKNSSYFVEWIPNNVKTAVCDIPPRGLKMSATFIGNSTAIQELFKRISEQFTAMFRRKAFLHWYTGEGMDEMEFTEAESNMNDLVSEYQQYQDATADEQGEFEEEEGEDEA

[8] = system: KM-20L2; assay: In vitro inhibition of tumor cell growth of KM20L2, colon cancer cell line; type: functional; details: Homo sapiens
[9] = system: DMS-114; assay: In vitro inhibition of tumor cell growth of DMS114, a small-cell lung cancer cell line; details: Homo sapiens
[10] = system: NCI-H226; assay: In vitro inhibition of tumor cell growth of NCI-H226, a non small-cell lung cancer cell line; type: functional; details: Homo sapiens

| SMILES | GI50 [1] [µM] | GI50 [2] [µM] | GI50 [3] [µM] | GI50 [4] [µM] | GI50 [5] [µM] | GI50 [6] [µM] | IC50 [7] [µM] | GI50 [8] [µM] | GI50 [9] [µM] | GI50 [10] [µM] |
| --- | --- | --- | --- | --- | --- | --- | --- | --- | --- | --- |
| Oc1cc(-c2ccc(Oc3ccccc3)cc2)nc2cc3c(cc12)OCO3 | > 100 | > 100 | > 100 | > 100 | > 100 | > 100 | > 40 | > 100 | > 100 | – |
| CN(C)c1cccc(-c2cc(O)c3ccccc3n2)c1 | 58.9 | 41.7 | 35.5 | 75.9 | – | 28.2 | 1.5 | 34.7 | 45.7 | 29.5 |
| COc1ccc(-c2cc(O)c3cc4c(cc3n2)OCO4)c(OC)c1 | 40.7 | > 100 | 45.7 | 63.1 | 42.7 | 45.7 | > 40 | 42.7 | 26.3 | 93.3 |
| Oc1cc(-c2ccccc2)nc2cc3c(cc12)OCO3 | 0.0708 | 0.162 | 0.112 | 0.0302 | 0.0355 | 0.191 | 0.63 | 0.182 | – | 0.316 |
| COc1ccc(-c2cc(O)c3cc(OC)ccc3n2)cc1 | > 100 | > 100 | > 100 | 36.3 | > 100 | – | > 40 | > 100 | > 100 | > 100 |
| Oc1c2c(nc3cc4c(cc13)OCO4)-c1ccccc1CC2 | > 100 | > 100 | > 100 | > 100 | > 100 | > 100 | > 40 | > 100 | > 100 | > 100 |
| CN(C)c1ccc(-c2cc(O)c3ccccc3n2)cc1 | > 100 | > 100 | > 100 | > 100 | – | > 100 | > 40 | > 100 | > 100 | > 100 |
| COc1cccc(-c2cc(O)c3ccccc3n2)c1 | 5.75 | 5.5 | 6.61 | 6.76 | – | 2.29 | 1.4 | 8.51 | 5.62 | 2.82 |
| COc1cc2nc(-c3ccccc3)cc(O)c2cc1OC | – | – | – | – | – | – | 18 | – | – | – |
| COc1cc(-c2cc(O)c3ccccc3n2)cc(OC)c1OC | > 100 | > 100 | > 100 | > 100 | – | > 100 | > 40 | > 100 | > 100 | > 100 |
| Oc1cc(/C=C/c2ccccc2)nc2cc3c(cc12)OCO3 | 2.82 | 2.24 | 4.27 | 7.08 | 2.19 | 3.02 | 2.3 | – | – | 2.88 |
| COc1ccc(CCc2cc(OC)c(OC)c(OC)c2)cc1O | – | – | – | – | – | – | 0.63 | – | – | – |
| Oc1cc(-c2ccc3c(c2)OCO3)nc2cc3c(cc12)OCO3 | 38 | 19.5 | 20.9 | 46.8 | 25.1 | 29.5 | 1.1 | 26.3 | 24 | 39.8 |
| Oc1cc(-c2ccccn2)nc2ccc(Cl)cc12 | 26.3 | 63.1 | 33.9 | 23.4 | 26.3 | 51.3 | > 40 | 39.8 | 13.8 | 46.8 |
| COc1ccc(-c2cc(O)c3cc(OC)c(OC)cc3n2)cc1OC | > 100 | > 100 | 67.6 | > 100 | > 100 | > 100 | > 40 | – | – | > 100 |
| Oc1cc(-c2ccccn2)nc2cccc(F)c12 | – | > 100 | > 100 | – | 61.7 | > 100 | > 40 | > 100 | > 100 | > 100 |
| COc1ccc(-c2cc(O)c3cc4c(cc3n2)OCO4)cc1OC | > 100 | > 100 | > 100 | > 100 | > 100 | > 100 | > 40 | > 100 | > 100 | > 100 |
| COc1ccc(-c2cc(O)c3cc4c(cc3n2)OCO4)c(OC)c1OC | > 100 | > 100 | > 100 | > 100 | > 100 | 75.9 | > 40 | > 100 | 29.5 | > 100 |

| SMILES | GI50 [1] [µM] | GI50 [2] [µM] | GI50 [3] [µM] | GI50 [4] [µM] | GI50 [5] [µM] | GI50 [6] [µM] | IC50 [7] [µM] | GI50 [8] [µM] | GI50 [9] [µM] | GI50 [10] [µM] |
| --- | --- | --- | --- | --- | --- | --- | --- | --- | --- | --- |
| COc1cccc(-c2cc(O)c3cc(OC)c(OC)cc3n2)c1 | 58.9 | 33.9 | 33.1 | 50.1 | – | 40.7 | 4.3 | 24 | 55 | 21.4 |
| Oc1c2c(nc3cc4c(cc13)OCO4)-c1ccccc1CCC2 | 28.2 | > 100 | > 100 | > 100 | > 100 | 19.5 | > 40 | – | – | > 100 |
| COc1cc(-c2cc(O)c3cc4c(cc3n2)OCO4)cc(OC)c1OC | 74.1 | > 100 | 21.9 | 32.4 | 93.3 | 32.4 | > 40 | > 100 | 83.2 | > 100 |
| COc1ccc(OC)c(-c2cc(O)c3cc4c(cc3n2)OCO4)c1 | 3.24 | 4.9 | 3.02 | 8.32 | 4.07 | 6.61 | 5.5 | 6.92 | 5.01 | 6.31 |
| Oc1cc(-c2ccccn2)nc2cc(F)ccc12 | 43.7 | – | – | 29.5 | 44.7 | > 100 | > 40 | > 100 | 52.5 | > 100 |
| COc1ccc(-c2cc(O)c3ccc(F)cc3n2)cc1 | > 100 | > 100 | > 100 | > 100 | > 100 | > 100 | > 40 | > 100 | > 100 | > 100 |
| Oc1cc(-c2ccco2)nc2cc3c(cc12)OCO3 | 39.8 | 42.7 | 25.1 | 41.7 | 13.5 | 28.2 | 23 | 21.4 | 37.2 | 24.5 |
| COc1ccc2c(c1)CCc1c-2nc2cc3c(cc2c1O)OCO3 | > 100 | > 100 | > 100 | > 100 | > 100 | > 100 | – | > 100 | – | > 100 |
| COc1ccc2nc(-c3ccccn3)cc(O)c2c1 | 33.9 | > 100 | 2.51 | 24 | 28.2 | 51.3 | > 40 | 35.5 | 22.4 | 36.3 |
| COc1ccc(-c2cc(O)c3cc4c(cc3n2)OCO4)cc1 | > 100 | > 100 | 38 | > 100 | > 100 | > 100 | > 40 | > 100 | > 100 | 28.8 |
| Oc1cc(-c2c[nH]c3ccccc23)nc2cc3c(cc12)OCO3 | > 100 | > 100 | > 100 | > 100 | > 100 | 91.2 | 1.3 | > 100 | > 100 | > 100 |
| CN(C)c1cccc(-c2cc(O)c3cc4c(cc3n2)OCO4)c1 | 0.372 | 0.245 | 0.24 | 0.741 | 0.195 | 0.24 | 0.7 | 0.229 | 0.407 | 0.316 |
| CN(C)c1ccc(-c2cc(O)c3cc4c(cc3n2)OCO4)cc1 | > 100 | > 100 | > 100 | > 100 | > 100 | > 100 | > 40 | > 100 | > 100 | > 100 |
| Oc1cc(-c2cccs2)nc2cc3c(cc12)OCO3 | 4.79 | 7.94 | 2.04 | 11.2 | 1.35 | 3.24 | 2.2 | 14.5 | 6.76 | 6.31 |
| Oc1cc(-c2ccc[nH]2)nc2cc3c(cc12)OCO3 | 29.5 | 30.9 | 15.8 | > 100 | 7.76 | 33.9 | 18 | 20 | 32.4 | 35.5 |
| COc1ccc2nc(-c3ccc(O)cc3)cc(O)c2c1 | 0.209 | 0.302 | 0.17 | 0.417 | 0.288 | 0.245 | 5.6 | 0.407 | 0.178 | 0.209 |
| COc1cc2nc(-c3cccc(N(C)C)c3)cc(O)c2cc1OC | 5.01 | < 1 | 2.24 | 5.25 | – | 1.95 | 15 | 2 | 4.79 | 1.86 |
